EP0256125A1, “MEANS FOR PREVENTING MICROBIOLOGICAL OVERGROWING OF HARD SURFACE” (priority 1985, dated 1987)

What was measured:
[1] = Solubility in solvents (qualitative); conditions: for Löslichkeit im Alkohol: Alkohol (Ethylalkohol)
[2] = tested on: Walrotiela subiculesa; experiment: Fungicidal activity, inhibition of mycelium growth on wort agar; type: cell-based
Text: (§1) Man prüfte die funguzide Aktivität von Zink-bis-(N-vi- nyloxyethyl)dithiocarbamat gegenüber den reinen Pilzkulturen: Gladosporium resinae, Cladosporium cladosporioides, Acremonium corvum, Acremonium charticola, Penicillium charlesii Smith, Walrotiela subiculesa, Geotrichum candidum Link, Oidium, Penicillium crysogenum. Die genannten Pilze wurden von den Oberflächen der Wände und Decken von Bierbrauereien und Werken für die Herstellung von alkoholfreien Getränken ausgeschieden.
(§2) […] In eine der Petri-Schalen wurde Nährboden mit 1 ml Azeton (Kontrolle) gegossen.
(§3) In 18 bis 20 Stunden nach dem Vergießen des Nährbodens in die Petri-Schalen führte man die Inokulation der reinen Pilzkultur durch, die vorher an einem Schräg-Würzeagar während 15 Tage gezüchtet wurden. Die Inkubation führte man bei einer Temperatur von 25 bis 27°C während 5 Tage durch. Danach wurde der Durchmesser der Pilzkolonien gemessen und der Prozentsatz der Hemmung des Wachstums des Myzeliums (S) nach der Abbott -Formel gezählt: [formula] worin dc Durchmesser der Pilzkolonien in Kontrolle ist, de =Durchmesser der Pilzkolonien in einer Schale mit dem Nährboden ist, der Zink-bis-(N-vinyloxyethyl)dithiocarbamat enthält.

[3] = tested on: Acremonium charticola; experiment: as above; type: cell-based
Text: as §1, §2, §3

[4] = tested on: Penicillium charlesii Smith; experiment: as above; type: cell-based
Text: as §1, §2, §3

[5] = tested on: Oidium; experiment: as above; type: cell-based
Text: as §1, §2, §3

[6] = tested on: Cladosporium cladosporioides; experiment: as above; type: cell-based
Text: as §1, §2, §3

[7] = tested on: Penicillium chrysogenum; experiment: as above; type: cell-based
Text: as §1, §2, §3

[8] = tested on: Acremonium corvum; experiment: as above; type: cell-based
Text: as §1, §2, §3

[9] = tested on: Cladosporium resinae; experiment: as above; type: cell-based
Text: as §1, §2, §3

[10] = tested on: Geotrichum candidum Link; experiment: as above; type: cell-based
Text: as §1, §2, §3

[11] = tested on: weißen Mäusen; experiment: Acute toxicity in white mice; conditions: perorale Einführung bei weißen Mäusen
[12] = tested on: p. Escherichiae; experiment: Bactericidal activity, growth on agar medium; type: cell-based; conditions: 37°C, 5 Tage
Method: (§4) Die bakterizide Aktivität des Kalium N-(vinyloxyethyl)-dithiocarbamats gegenüber den Bakterien, die von der Oberfläche von Wänden und Decken der Produktionsräume von Brauereien und Fabriken zur Herstellunq von alkoholfreien Getränken ausgeschieden wurden und die zu p.p.Bacillus, Micrococcus, Pseudomonas, Escherichiae gehören, wurde geprüft.
(§5) Es wurden wäßrige Lösungen des genannten Stoffes verschiedener Konzentration hergestellt, die so berechnet wurde, daß bei Einführung von 1 ml der Lösung in 25 ml geschmolzenen agarisierten Nährboden (45-50°C) die Konzentration des Stoffes im Nährboden von 0,003 bis 0,5% betrug. In 18 bis 24 Stunden wurde auf die Oberfläche des Nährbodens 0,1 ml der wäßrigen Suspension der eintägigen reinen Bakterienkulturen aufgetragen, die am Fleisch-Pepton-Agar gezüchtet wurden. Die Suspension wurde gleichmäßig verteilt. In Kontrollschalen wurden 0,1 ml Wasser auf der Oberfläche des Närhbodens verteilt.
(§6) Die Inkubation führte man bei einer Temperatur von 37°C während 5 Tage durch.
(§7) Die effektive Wirkung des Stoffes wurde nach dem Auftreten des Bakterienwachstums an der Oberfläche des Nährbodens bewertet.

[13] = tested on: p.Micrococcus; experiment: Bactericidal activity, growth on agar medium; type: cell-based; conditions: 37°C, 5 Tage
Method: as §4, §5, §6, §7

[14] = tested on: p.Pseudomonas; experiment: Bactericidal activity, growth on agar medium; type: cell-based; conditions: 37°C, 5 Tage
Method: as §4, §5, §6, §7

[15] = tested on: p.Bacillus; experiment: Bactericidal activity, growth on agar medium; type: cell-based; conditions: 37°C, 5 Tage
Method: as §4, §5, §6, §7

[16] = tested on: Schimmelpilzen, die die Bewachsung von Oberflächen hervorrufen; experiment: Fungicidal activity, summary over all tested fungi; type: cell-based; conditions: day 5
Text: as §1
Es wurden Lösungen des Zink-bis-(N-vinyloxyethyl)di- thiocarbamats im Azeton verschiedener Konzentration hergestellt, die so berechnet wurde, daß bei der Einführung vor 1 ml Lösung in 10 ml des geschmolzenen Würzeagars (45-50°C) die Konzentration des genannten Stoffes im Medium von 0,0015 bis 0,012% betrug. In eine der Petri-Schalen wurde Nährboden mit 1 ml Azeton (Kontrolle) gegossen.
as §3

[17] = Storage stability (qualitative); type: physicochemical; conditions: result in words
[18] = Konzentration des Stoffes 0,0015 %
[19] = Konzentration des Stoffes 0,003 %
[20] = Konzentration des Stoffes 0,006 %
[21] = Konzentration des Stoffes 0,012 %
[22] = Konzentration des Stoffes 0,01 %
[23] = Konzentration des Stoffes 0,1 % (0,10)
[24] = Konzentration des Stoffes 0,02 %
[25] = Konzentration des Stoffes 0,05 %
[26] = Konzentration des Stoffes 0,005 %

Substance: Zink-bis-(N-vinyloxyethyl)dithiocarbamat
- Löslichkeit im Alkohol [1]: begrenzt
- Löslichkeit im Azeton [1]: begrenzt
- Löslichkeit im Dimethylsulfoxid [1]: gut
- Löslichkeit in Wasser [1]: unlöslich
- Hemmung des Myzeliums am 5. Tag des Wachstums, Walrotiela subiculesa [2, 18]: 52%
- Hemmung des Myzeliums am 5. Tag des Wachstums, Walrotiela subiculesa [2, 19]: 100%
- Hemmung des Myzeliums am 5. Tag des Wachstums, Walrotiela subiculesa [2, 20]: 100%
- Hemmung des Myzeliums am 5. Tag des Wachstums, Walrotiela subiculesa [2, 21]: 100%
- Hemmung des Myzeliums am 5. Tag des Wachstums, Acremonium charticola [3, 18]: 50%
- Hemmung des Myzeliums am 5. Tag des Wachstums, Acremonium charticola [3, 19]: 100%
- Hemmung des Myzeliums am 5. Tag des Wachstums, Acremonium charticola [3, 20]: 100%
- Hemmung des Myzeliums am 5. Tag des Wachstums, Acremonium charticola [3, 21]: 100%
- Hemmung des Myzeliums am 5. Tag des Wachstums, Penicillium charlesii Smith [4, 18]: 90%
- Hemmung des Myzeliums am 5. Tag des Wachstums, Penicillium charlesii Smith [4, 19]: 100%
- Hemmung des Myzeliums am 5. Tag des Wachstums, Penicillium charlesii Smith [4, 20]: 100%
- Hemmung des Myzeliums am 5. Tag des Wachstums, Penicillium charlesii Smith [4, 21]: 100%
- Hemmung des Myzeliums am 5. Tag des Wachstums, Oidium [5, 18]: 80%
- Hemmung des Myzeliums am 5. Tag des Wachstums, Oidium [5, 19]: 100%
- Hemmung des Myzeliums am 5. Tag des Wachstums, Oidium [5, 20]: 100%
- Hemmung des Myzeliums am 5. Tag des Wachstums, Oidium [5, 21]: 100%
- Hemmung des Myzeliums am 5. Tag des Wachstums, Cladosporium cladosporioides [6, 18]: 100%
- Hemmung des Myzeliums am 5. Tag des Wachstums, Cladosporium cladosporioides [6, 19]: 100%
- Hemmung des Myzeliums am 5. Tag des Wachstums, Cladosporium cladosporioides [6, 20]: 100%
- Hemmung des Myzeliums am 5. Tag des Wachstums, Cladosporium cladosporioides [6, 21]: 100%
- Hemmung des Myzeliums am 5. Tag des Wachstums, Penicillium chrysogenum [7, 18]: 10%
- Hemmung des Myzeliums am 5. Tag des Wachstums, Penicillium chrysogenum [7, 19]: 40%
- Hemmung des Myzeliums am 5. Tag des Wachstums, Penicillium chrysogenum [7, 20]: 80%
- Hemmung des Myzeliums am 5. Tag des Wachstums, Penicillium chrysogenum [7, 21]: 100%
- Hemmung des Myzeliums am 5. Tag des Wachstums, Acremonium corvum [8, 18]: 40%
- Hemmung des Myzeliums am 5. Tag des Wachstums, Acremonium corvum [8, 19]: 100%
- Hemmung des Myzeliums am 5. Tag des Wachstums, Acremonium corvum [8, 20]: 100%
- Hemmung des Myzeliums am 5. Tag des Wachstums, Acremonium corvum [8, 21]: 100%
- Hemmung des Myzeliums am 5. Tag des Wachstums, Cladosporium resinae [9, 18]: 37,5%
- Hemmung des Myzeliums am 5. Tag des Wachstums, Cladosporium resinae [9, 19]: 100%
- Hemmung des Myzeliums am 5. Tag des Wachstums, Cladosporium resinae [9, 20]: 100%
- Hemmung des Myzeliums am 5. Tag des Wachstums, Cladosporium resinae [9, 21]: 100%
- Hemmung des Myzeliums am 5. Tag des Wachstums, Geotrichum candidum Link [10, 18]: 29%
- Hemmung des Myzeliums am 5. Tag des Wachstums, Geotrichum candidum Link [10, 19]: 100%
- Hemmung des Myzeliums am 5. Tag des Wachstums, Geotrichum candidum Link [10, 20]: 100%
- Hemmung des Myzeliums am 5. Tag des Wachstums, Geotrichum candidum Link [10, 21]: 100%
- LD50 [11]: 1120 + 260 mg/kg
- Konzentration der Salze der N-(vinyloxyethyl)dithiocarbaminsäure (100%), die das Wachstum der Bakterien am 5. Tag des Wachstums hemmen, p. Escherichiae [12]: 0,05%
- Konzentration der Salze der N-(vinyloxyethyl)dithiocarbaminsäure (100%), die das Wachstum der Bakterien am 5. Tag des Wachstums hemmen, p.Micrococcus [13]: 0,05%
- Konzentration der Salze der N-(vinyloxyethyl)dithiocarbaminsäure (100%), die das Wachstum der Bakterien am 5. Tag des Wachstums hemmen, p.Pseudomonas [14]: 0,05%
- Konzentration der Salze der N-(vinyloxyethyl)dithiocarbaminsäure (100%), die das Wachstum der Bakterien am 5. Tag des Wachstums hemmen, p.Bacillus [15]: 0,05%
- Konzentration, bei der die Entwicklung aller untersuchten Pilze vollständig gehemmt wurde [16]: 0,012%

Substance: Kupfer bis-(N-vinyloxyethyl) dithiocarbamat
- Löslichkeit im Alkohol [1]: bearenzt löslich
- Löslichkeit im Azeton [1]: bearenzt löslich
- Löslichkeit im Diethylether ([1]; Diethylether): nicht löslich
- Löslichkeit im Dimethylsulfoxid [1]: gut löslich
- Löslichkeit in Wasser [1]: bearenzt löslich
- Hemmung des Myzeliums am 5. Tag des Wachstums, Walrotiela subiculesa [2, 22]: 0%
- Hemmung des Myzeliums am 5. Tag des Wachstums, Walrotiela subiculesa [2, 23]: 100%
- Hemmung des Myzeliums am 5. Tag des Wachstums, Walrotiela subiculesa [2, 24]: 10%
- Hemmung des Myzeliums am 5. Tag des Wachstums, Walrotiela subiculesa [2, 25]: 37%
- Hemmung des Myzeliums am 5. Tag des Wachstums, Walrotiela subiculesa [2, 26]: 0%
- Hemmung des Myzeliums am 5. Tag des Wachstums, Acremonium charticola [3, 22]: 96%
- Hemmung des Myzeliums am 5. Tag des Wachstums, Acremonium charticola [3, 23]: 100%
- Hemmung des Myzeliums am 5. Tag des Wachstums, Acremonium charticola [3, 24]: 100%
- Hemmung des Myzeliums am 5. Tag des Wachstums, Acremonium charticola [3, 25]: 100%
- Hemmung des Myzeliums am 5. Tag des Wachstums, Acremonium charticola [3, 26]: 70%
- Hemmung des Myzeliums am 5. Tag des Wachstums, Penicillium charlesii Smith [4, 22]: 30%
- Hemmung des Myzeliums am 5. Tag des Wachstums, Penicillium charlesii Smith [4, 23]: 100%
- Hemmung des Myzeliums am 5. Tag des Wachstums, Penicillium charlesii Smith [4, 24]: 80%
- Hemmung des Myzeliums am 5. Tag des Wachstums, Penicillium charlesii Smith [4, 25]: 100%
- Hemmung des Myzeliums am 5. Tag des Wachstums, Penicillium charlesii Smith [4, 26]: 15%
- Hemmung des Myzeliums am 5. Tag des Wachstums, Cladosporium cladosporioides [6, 22]: 36%
- Hemmung des Myzeliums am 5. Tag des Wachstums, Cladosporium cladosporioides [6, 23]: 100%
- Hemmung des Myzeliums am 5. Tag des Wachstums, Cladosporium cladosporioides [6, 24]: 65%
- Hemmung des Myzeliums am 5. Tag des Wachstums, Cladosporium cladosporioides [6, 25]: 80%
- Hemmung des Myzeliums am 5. Tag des Wachstums, Cladosporium cladosporioides [6, 26]: 15%
- Hemmung des Myzeliums am 5. Tag des Wachstums, Penicillium chrysogenum [7, 22]: 25%
- Hemmung des Myzeliums am 5. Tag des Wachstums, Penicillium chrysogenum [7, 23]: 100%
- Hemmung des Myzeliums am 5. Tag des Wachstums, Penicillium chrysogenum [7, 24]: 36%
- Hemmung des Myzeliums am 5. Tag des Wachstums, Penicillium chrysogenum [7, 25]: 70%
- Hemmung des Myzeliums am 5. Tag des Wachstums, Penicillium chrysogenum [7, 26]: 10%
- Hemmung des Myzeliums am 5. Tag des Wachstums, Acremonium corvum [8, 22]: 100%
- Hemmung des Myzeliums am 5. Tag des Wachstums, Acremonium corvum [8, 23]: 100%
- Hemmung des Myzeliums am 5. Tag des Wachstums, Acremonium corvum [8, 24]: 100%
- Hemmung des Myzeliums am 5. Tag des Wachstums, Acremonium corvum [8, 25]: 100%
- Hemmung des Myzeliums am 5. Tag des Wachstums, Acremonium corvum [8, 26]: 100%
- Hemmung des Myzeliums am 5. Tag des Wachstums, Cladosporium resinae [9, 22]: 34%
- Hemmung des Myzeliums am 5. Tag des Wachstums, Cladosporium resinae [9, 23]: 100%
- Hemmung des Myzeliums am 5. Tag des Wachstums, Cladosporium resinae [9, 24]: 80%
- Hemmung des Myzeliums am 5. Tag des Wachstums, Cladosporium resinae [9, 25]: 90%
- Hemmung des Myzeliums am 5. Tag des Wachstums, Geotrichum candidum Link [10, 22]: 100%
- Hemmung des Myzeliums am 5. Tag des Wachstums, Geotrichum candidum Link [10, 23]: 100%
- Hemmung des Myzeliums am 5. Tag des Wachstums, Geotrichum candidum Link [10, 24]: 100%
- Hemmung des Myzeliums am 5. Tag des Wachstums, Geotrichum candidum Link [10, 25]: 100%
- Hemmung des Myzeliums am 5. Tag des Wachstums, Geotrichum candidum Link [10, 26]: 100%
- Konzentration der Salze der N-(vinyloxyethyl)dithiocarbaminsäure (100%), die das Wachstum der Bakterien am 5. Tag des Wachstums hemmen, p. Escherichiae [12]: 0,15%
- Konzentration der Salze der N-(vinyloxyethyl)dithiocarbaminsäure (100%), die das Wachstum der Bakterien am 5. Tag des Wachstums hemmen, p.Micrococcus [13]: 0,15%
- Konzentration der Salze der N-(vinyloxyethyl)dithiocarbaminsäure (100%), die das Wachstum der Bakterien am 5. Tag des Wachstums hemmen, p.Pseudomonas [14]: 0,15%
- Konzentration der Salze der N-(vinyloxyethyl)dithiocarbaminsäure (100%), die das Wachstum der Bakterien am 5. Tag des Wachstums hemmen, p.Bacillus [15]: 0,15%
- Lagerbeständigkeit [17]: lagerbeständig
- Konzentration, bei der die Entwicklung aller untersuchten Pilze vollständig gehemmt wurde [16]: 0,1%
